Each structure is given as a SMILES string. Where two headings read alike, the source gives them in different places.

One series has as its system SART stressed mouse. The experiment in a line: Test for analgesic effect (1): SART stressed mouse, modified Randall-Selitto tail pressure method. It is filed as in vivo, mice. As to conditions: for Analgesic coefficient: 25 ng per mouse into the lateral ventricle, 30 minutes after administration, pain threshold of test group divided by that of SART control group, 1.0 = no effect.

The subject of a further series is mice. In words: Test for analgesic effect (4): acetic acid writhing test. Format: in vivo. As to conditions: oral single dose; 0.7% acetic acid i.p. 25 minutes after; writhing numbers during 10 minutes. How it is done: The compounds of the present invention or the carboxylic acid type thereof were orally administered to mice and a test for an analgesic effect was carried out by means of an acetic acid writhing test. As to the test animals, male mice of ddY strain of four weeks age were subjected to a preliminary breeding and they were used where one group comprised ten mice. Each of the compound of the present invention or the carboxylic acid type thereof as a test substance was orally administered in a single dose while, to a control group, distilled water (water for injection) was administered similarly. After 25 minutes from the administration of the test substance, a 0.7% acetic acid/physiological saline was intraperitoneally administered at the dose of 10 mL/kg. From 5 minutes thereafter, writhing numbers during 10 minutes were counted and a suppressive rate for each mouse was calculated according to the following formula. Suppressive Rate (%)=[(Mean writhing numbers of the control group)−(Writhing numbers of each mouse)]÷[Mean writhing numbers of the control group]×100

The test system of the next series is Chung model rat. The experiment in a line: Test for analgesic effect (2)/(3): Chung model rat, mechanical allodynia by von Frey filament. Format: in vivo, rats. How it is done: A test for analgesic effect was conducted using a Chung model rat which is a neuropathic pain model. As to the test animal, male rats of Wistar strain of nine weeks age were used and model rats were prepared in accordance with the method of Kim and Chung (Pain, vol. 50, pages 355 to 363, 1992). Thus, under anesthetization with pentobarbital (40 mg/kg, intraperitoneal administration), rat L5 spinal nerve was exposed and L5 dorsal root ganglion periphery side was strongly ligated using 5-0 silk yarn. The animals were placed in a transparent acrylate cage whose bottom was made of wire net, a 50% reaction threshold value was calculated by an up-down method using a von Frey filament (manufactured by North Coast Medical Inc.) according to the methods of Chaplan, et al. (J. Neurosci. Method, vol. 53, pages 55 to 63, 1994) and by Lee, et al. (J. Neurophysiol., vol. 81, pages 2226 to 2233, 1999) and measurement of allodynia was conducted. Before injury of spinal nerve, the 50% reaction threshold value was measured twice and the animals where the threshold value was outside the standard were excluded from the operation for spinal nerve injury. […] Those test animals were made into groups of seven animals so that the mean value of 50% reaction threshold after 28 days from the nerve injury as an index became nearly the same in each group.
The carboxylic acid type of the compounds of the present invention as a test substance was intraperitoneally administered in a single dose while, a 0.5% CMC-Na/physiological saline solution was administered similarly to a nerve injury control group. After 30 minutes from the administration of the test substance, allodynia was measured to calculate a 50% reaction threshold value. With regard to a significance test, Paired t-test was conducted for comparison between before and after the nerve injury and Dunnett's multiple comparison test was used for comparison among multiple groups of the nerve injury control group and the test substance administration group.
According to the same manner as in the above Test for Analgesic Effect (2), each of Compound 12 of the present invention (3 mg/kg, 10 mg/kg) and Carboxylic acid substance A of the compound of the present invention (10 mg/kg) was orally administered in a single dose as the test substance to Chung model rats. Allodynia after 0, 15, 30, 60 and 120 minutes from the administration was measured for each of the test substance administration group and the nerve injury control group whereupon a 50% reaction threshold value was calculated.

Series [1] in a line: Test of kinetics in blood of rats. It is filed as in vivo. As to the method: Each of the compound of the present invention and the carboxylic acid type A thereof was dissolved in DMSO, diluted with water. A sample solution (1% DMSO solution) made into 2 mg/mL was orally administered in a single dose to the fasted Wistar strain SPF male rats of seven weeks age using a stomach tube (10 mg/5 mL/kg). At the stages of 0.25, 0.5, 1, 2, 4 and 8 hour(s) after the administration, about 150 μL of the blood was collected from tail vein using a capillary to which heparin was added and said capillary was centrifuged to collect the plasma. Protein was removed from the plasma sample and the supernatant liquid was diluted to prepare each sample solution for the measurement.

Details of series [2]: species or system cynomolgus monkeys. As to conditions: cynomolgus monkey, in vivo, 30 mg/kg. As to the method:
Each of the compound of the present invention and Carboxylic acid type A thereof dissolved or suspended in a hydrochloric acid solution was diluted with water. […] At the stages of before the administration and of 0.25, 0.5, 1, 2, 4, 8 and 24 hour(s) after the administration, the blood was collected from femoral vein using a syringe to which heparin was added followed by subjecting to centrifugation to collect the plasma. Collection of the blood was conducted for three times in total where one collection was done with each blank term of six days for each test substance. Concentration of Carboxylic acid type A in each of the collected plasma samples was quantified by an LC-MS and Cmax (maximum drug concentration in plasma) and AUC (area under blood concentration time curve; 0 to ∞ hour(s)) of the compound of the present invention and Carboxylic acid type A thereof were calculated.

In the series with SART stressed mouse, `CC=CC(=O)N[C@@H](Cc1cncn1C)C(=O)O` [Carboxylic acid type B, N^α-crotonoyl-N^π-methyl-L-histidine] gave an Analgesic coefficient of 1.23.
In the series with SART stressed mouse, `CCn1cncc1C[C@H](NC(=O)C=Cc1ccccc1)C(=O)O` [Carboxylic acid type C, N^α-3-phenylpropenoyl-N^π-ethyl-L-histidine] returned an Analgesic coefficient of 1.14. In addition, the “Suppressive Rate (%)” value with mice worked out at 27.7%.
With `C=CC(=O)N[C@@H](Cc1cncn1Cc1ccccc1)C(=O)O` [Carboxylic acid type D, N^α-acryloyl-N^π-benzyl-L-histidine], in the series with Chung model rat (intraperitoneal single dose), the “threshold as compared with the nerve injury control group” value was “significant increase in the threshold”. The “50% reaction threshold value” in the series with Chung model rat (intraperitoneally 400 μg/kg single dose, 30 minutes after administration) turned out to be 7.32 g. Besides, the “Suppressive Rate (%)” value with mice worked out at 37.9%.
Take `CC(C)=CC(=O)N[C@@H](Cc1cncn1C)C(=O)O` [Carboxylic acid type E, N^α-3-metylcrotonoyl-N^π-methyl-L-histidine]: the “Suppressive Rate (%)” value with mice was 17.8%.
Take `C=CC(=O)N[C@@H](Cc1cncn1C)C(=O)OC` [Compound 1, N^α-acryloyl-N^π-methyl-L-histidine methyl ester]: in series [1] (rat, in vivo, po, 10 mg/kg), the “AUC” value was 2027.6 ng·h/mL and the “Cmax” value worked out at 1623.9 ng/mL.
The like results for `C=CC(=O)N[C@@H](Cc1cncn1C)C(=O)OCC` [Compound 2, N^α-acryloyl-N^π-methyl-L-histidine ethyl ester] were, in that order, 3468.0 ng·h/mL and 2719.4 ng/mL.
With `C=CC(=O)N[C@@H](Cc1cncn1C)C(=O)OCC(C)(C)C` [Compound 3, N^α-acryloyl-N^π-methyl-L-histidine neopentyl ester], in series [1] (rats, oral 10 mg/kg single dose, 0 to 8 hours, Carboxylic acid type A quantified in plasma, values converted to dose equimolar to Carboxylic acid type A), the “AUC” value came out at 2373.9 ng·h/mL. Moreover, the “Cmax” value in series [1] (rats, oral 10 mg/kg single dose, Carboxylic acid type A quantified in plasma, values converted to dose equimolar to Carboxylic acid type A) came to 2074.0 ng/mL.
For `C=CC(=O)N[C@@H](Cc1cncn1C)C(=O)OCCC(C)C` [Compound 4, N^α-acryloyl-N^π-methyl-L-histidine isopentyl ester], in series [1] (rat, in vivo, po, 10 mg/kg), the “AUC” value amounted to 2641.8 ng·h/mL and the peak concentration (Cmax) was 2144.0 ng/mL.
Consider `C=CC(=O)N[C@@H](Cc1cncn1C)C(=O)OCCC(C)(C)C` [Compound 5, N^α-acryloyl-N^π-methyl-L-histidine 3,3-dimethylbutyl ester], for which, in series [1] (rat, in vivo, po, 10 mg/kg), the “AUC” value is 3264.2 ng·h/mL and the “Cmax” value is given as 2761.6 ng/mL.
For `C=CC(=O)N[C@@H](Cc1cncn1C)C(=O)OCCCC` [Compound 6, N^α-acryloyl-N^π-methyl-L-histidine butyl ester] the same measures were 2774.6 ng·h/mL and 2407.2 ng/mL.
As to `C=CC(=O)N[C@@H](Cc1cncn1C)C(=O)OCc1ccc(C)cc1` [Compound 9, N^α-acryloyl-N^π-methyl-L-histidine 4-methylbenzyl ester], in series [1] (rat, in vivo, po, 10 mg/kg), the “AUC” value is 3750.7 ng·h/mL and the “Cmax” value came out at 2671.7 ng/mL.
In the case of `C=CC(=O)N[C@@H](Cc1cncn1C)C(=O)OCc1ccc(Cl)cc1` [Compound 10, N^α-acryloyl-N^π-methyl-L-histidine 4-chlorobenzyl ester], in series [1] (rat, in vivo, po, 10 mg/kg), the “AUC” value came out at 3747.0 ng·h/mL and the “Cmax” value is reported as 2579.9 ng/mL.
In the case of `C=CC(=O)N[C@@H](Cc1cncn1C)C(=O)OCc1ccc(C(C)(C)C)cc1` [Compound 11, N^α-acryloyl-N^π-methyl-L-histidine 4-tert-butylbenzyl ester], in series [1] (rat, in vivo, po, 10 mg/kg), the “AUC” value turned out to be 4234.6 ng·h/mL and the “Cmax” value was found to be 2207.4 ng/mL.
For `C=CC(=O)N[C@@H](Cc1cncn1C)C(=O)OCCc1ccccc1` [Compound 12, N^α-acryloyl-N^π-methyl-L-histidine phenethyl ester], the “anti-allodynia action as compared with the nerve injury control group” value in the series on Chung model rat (oral single dose (Compound 12: 3 and 10 mg/kg; Carboxylic acid type A: 10 mg/kg), 15, 30 and 60 minutes after administration, FIG. 1) is on record as “significant anti-allodynia action”. Moreover, in the series on Chung model rat (oral, 10 mg/kg), the “anti-allodynia action compared with Carboxylic acid type A in the same dose” value was “stronger anti-allodynia action”. In series [1] (rat, in vivo, po, 10 mg/kg), the “AUC” value was found to be 3971.6 ng·h/mL and the “Cmax” value stood at 3111.6 ng/mL. Further, in series [2], the “AUC” value came to 8099.0 ng·h/mL and the “Cmax” value is reported as 4088.2 ng/mL.
As for `C=CC(=O)N[C@@H](Cc1cncn1C)C(=O)OCCc1ccc(OC)cc1` [Compound 13, N^α-acryloyl-N^π-methyl-L-histidine 4-methoxyphenethyl ester], in series [1] (rat, in vivo, po, 10 mg/kg), the “AUC” value was found to be 4058.3 ng·h/mL and the “Cmax” value is 3163.4 ng/mL.
For `C=CC(=O)N[C@@H](Cc1cncn1C)C(=O)OCCc1ccc(C)cc1` [Compound 14, N^α-acryloyl-N^π-methyl-L-histidine 4-methylphenethyl ester], in series [2], the “AUC” value turned out to be 5133.2 ng·h/mL and the “Cmax” value is 779.2 ng/mL.
In the case of `C=CC(=O)N[C@@H](Cc1cncn1C)C(=O)OCCc1ccc(Cl)cc1` [Compound 15, N^α-acryloyl-N^π-methyl-L-histidine 4-chlorophenethyl ester], in series [1] (rat, in vivo, po, 10 mg/kg), the “AUC” value came to 3620.6 ng·h/mL and the “Cmax” value was 2391.8 ng/mL.
The like results for `C=CC(=O)N[C@@H](Cc1cncn1C)C(=O)OCCc1ccc(C(C)(C)C)cc1` [Compound 16, N^α-acryloyl-N^π-methyl-L-histidine 4-tert-butylphenethyl ester] were, in that order, 3601.8 ng·h/mL and 2562.7 ng/mL.
Take `C=CC(=O)N[C@@H](Cc1cncn1C)C(=O)OC(C)OC(=O)OC1CCCCC1` (stereo partly drawn) [Compound 17, N^α-acryloyl-N^π-methyl-L-histidine 1-(cyclohexyloxycarbonyloxy)ethyl ester]: in series [1] (rat, in vivo, po, 10 mg/kg), the “AUC” value was 2704.9 ng·h/mL and the “Cmax” value amounted to 2044.3 ng/mL.
For `C=CC(=O)N[C@@H](Cc1cncn1C)C(=O)OC(c1ccccc1)c1ccccc1` [Compound 24, N^α-acryloyl-N^π-methyl-L-histidine diphenylmethyl ester] the same measures were 2614.2 ng·h/mL and 1495.3 ng/mL.
For `Cl.Cn1cncc1C[C@H](NC(=O)C=Cc1ccccc1O)C(=O)OCCc1ccccc1` [Compound 26, N^α-[3-(2-hydroxyphenyl)acryloyl]-N^π-methyl-L-histidine phenethyl ester hydrochloride], in the series on mice, the “Suppressive Rate (%)” value came to 23.8%.
`NCCC(=O)N[C@@H](Cc1cnc[nH]1)C(=O)O` [carnosine, β-ananyl-L-histidine, reference compound]: the analgesic action entry with SART stressed mouse (administration into the lateral ventricle) is recorded as “no significant analgesic action”.

Values taken from patent publication US8324261B2, “Histidine derivatives” (Nippon Zoki Pharmaceutical Co., Ltd., priority 2007, dated 2012).
